From patent US8492570B2, “2-substituted estra-1,3,5(10)-triene-3-yl sulfamate with an anti-tumor action” (Sterix Limited, priority 2003, dated 2013)

Key:
[1] = test system: HMVEC human primary dermal microvascular endothelial cells; experiment: Inhibition of cell proliferation, crystal violet staining; assay type: cell-based; conditions: 4 days incubation
Experimental: (§1) Cell cultures of the following cell lines were prepared in 96-well microtiter plates: • 1. MaTu/ADR multidrug-resistant human breast tumor cells (Epo GmbH Berlin), 5000 cells/well. • 2. HCT116 human colon tumor cells (ATCC CCL-247), 3000 cells/well. • 3. NCl-H460 human non-small-cell lung cancer cells (ATCC HTB-177), 3000 cells/well. • 4. DU145 human prostate tumor cells (ATCC HTB-81), 5000 cells/well. • 5. HMVEC human primary dermal microvascular endothelial cells, 7500 cells/well.
(§2) After 24 hours of incubation in a cell culture incubator at 37° C., the cells of a microtiter plate were stained with crystal violet (reference plate), while the cells in the test plates were incubated for 4 days with the test substances in the concentrations […], as well as with the DMSO solvent by itself (solvent control). The cell proliferation was determined by staining cells with crystal violet. The extinction of the crystal violet was determined by photometry at 595 nm. The percentage of the change in the cell number in the test plates was determined after the extinction values were normalized to the reference plate (0%) and to the solvent control (100%). The semi-maximal inhibition of the cell growth (IC50) was determined as the substance concentration, in which 50% of the cell number of the solvent controls were present.

[2] = test system: DU145 human prostate tumor cells; experiment: as above; assay type: cell-based; conditions: DU145, 4 days incubation
Experimental: as §1, §2

[3] = test system: NCl-H460 human non-small-cell lung cancer cells; experiment: as above; assay type: cell-based; conditions: NCl-H460, 4 days incubation
Experimental: as §1, §2

[4] = test system: HCT116 human colon tumor cells; experiment: as above; assay type: cell-based; conditions: HCT116, 4 days incubation
Experimental: as §1, §2

[5] = test system: MaTu/ADR multidrug-resistant human breast tumor cells; experiment: as above; assay type: cell-based; conditions: 4 days incubation
Experimental: as §1, §2

[6] = target: T1, microtubular protein (tubulin) purified from pig brains (Sus scrofa, UniProt P02550+P02554); experiment: Inhibition of tubulin polymerization (turbidimetry at 340 nm); assay type: biochemical; conditions: pig brain microtubular protein 1 mg/ml, 0.25 mmol GTP, 37° C.
T1 construct: microtubular protein was purified from pig brains via cyclic assembling/disassembling; from tissue; host or cells: pig brain
T1 sequence (P02550 whole entry): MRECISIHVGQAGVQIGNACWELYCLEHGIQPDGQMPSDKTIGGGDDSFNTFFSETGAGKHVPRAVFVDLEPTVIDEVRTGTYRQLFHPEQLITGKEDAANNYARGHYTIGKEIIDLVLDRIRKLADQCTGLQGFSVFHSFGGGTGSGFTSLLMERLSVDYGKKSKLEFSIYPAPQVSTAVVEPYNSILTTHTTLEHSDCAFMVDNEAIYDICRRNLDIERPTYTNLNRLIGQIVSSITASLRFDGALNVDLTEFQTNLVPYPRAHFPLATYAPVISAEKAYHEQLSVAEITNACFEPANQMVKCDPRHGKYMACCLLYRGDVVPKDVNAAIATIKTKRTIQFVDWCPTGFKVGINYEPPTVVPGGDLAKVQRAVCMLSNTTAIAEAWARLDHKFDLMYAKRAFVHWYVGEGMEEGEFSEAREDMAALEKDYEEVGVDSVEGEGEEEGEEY
T1 sequence (P02554 whole entry): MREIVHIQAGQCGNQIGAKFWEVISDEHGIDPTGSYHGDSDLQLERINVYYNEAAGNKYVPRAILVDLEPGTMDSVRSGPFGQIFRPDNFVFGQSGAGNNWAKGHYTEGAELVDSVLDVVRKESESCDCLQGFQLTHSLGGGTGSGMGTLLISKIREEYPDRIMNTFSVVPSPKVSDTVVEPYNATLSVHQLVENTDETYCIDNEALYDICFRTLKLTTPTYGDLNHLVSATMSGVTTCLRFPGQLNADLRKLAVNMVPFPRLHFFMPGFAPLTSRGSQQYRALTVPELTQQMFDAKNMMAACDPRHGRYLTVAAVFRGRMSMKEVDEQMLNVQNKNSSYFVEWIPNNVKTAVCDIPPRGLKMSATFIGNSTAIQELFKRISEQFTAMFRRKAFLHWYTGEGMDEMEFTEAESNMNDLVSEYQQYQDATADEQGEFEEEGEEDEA
Experimental: The in-vitro testing of the tubulin polymerization influence was performed as follows:
The buffer system used had the following composition: 20 mmol of PIPES (1,4-piperazine-diethane-sulfonic acid, pKa 6.8), 80 mmol of NaCl, 0.5 mmol of MgCl2, 1 mmol of EGTA (ethylene glycol-bis-(2-aminoethylene)-tetraacetic acid).
For active ingredient testing, protein concentrations of 1 mg/ml (about 10^−5 mmol of tubulin) were used. […] The assembling of microtubuli was carried out in the presence of 0.25 mmol of GTP and heating the samples to 37° C.
The microtubulus formation was examined by means of turbidimetry at a wavelength of 340 nm.
Testing of the active ingredients was carried out by their addition at the beginning of the assembling or in the state of equilibrium. Deviations of turbidity curves from the control characterize its activity. To monitor action and to evaluate the measured turbidity values, a transmission electron microscopic study (CEM 902 A, Zeiss/Oberkochen) of the assemblates was always performed after negative staining with 1% aqueous uranyl acetate.

IC50 [2] [µM] | IC50 [3] [µM] | IC50 [4] [µM] | IC50 [5] [µM] | Structure (SMILES) | IC50 ([1]; Homo sapiens, 96 h) [µM] | IC50 ([2]; Homo sapiens, DU-145, 96 h) [µM] | IC50 ([3]; Homo sapiens, 96 h) [µM] | IC50 ([4]; Homo sapiens, HCT-116, 96 h) [µM] | IC50 ([5]; Homo sapiens, 96 h) [µM] | IC50 [6] [µM] | IC50 [1] [µM]
 |  |  |  | COc1cc2c(cc1OS(N)(=O)=O)CC[C@@H]1[C@@H]2CC[C@]2(C)[C@@H](CO)CC[C@@H]12 [(11), 17β-Hydroxymethyl-2-methoxy-estra-1,3,5(10)-trien-3-yl Sulfamate] | < 0.1 | 0.2 | 0.18 | 0.18 | < 0.1 |  | 
 |  |  |  | CCc1cc2c(cc1OS(N)(=O)=O)CC[C@@H]1[C@@H]2CC[C@]2(C)[C@@H](OC)CC[C@@H]12 [(3), 2-Ethyl-17β-methoxy-estra-1,3,5(10)-trien-3-yl sulfamate] | 0.16 | 0.18 | 0.18 | 0.18 | 0.12 | 1.4 | 
1.9 | 1.8 | 1.1 | 0.2 | COc1cc2c(cc1O)CC[C@@H]1[C@@H]2CC[C@]2(C)[C@@H](O)CC[C@@H]12 [2-Methoxyestradiol, reference compound] |  |  |  |  |  | 2.7 | 2.2
 |  |  |  | COc1cc2c(cc1OS(N)(=O)=O)CC[C@@H]1[C@@H]2CC[C@]2(C)[C@@H](C)CC[C@@H]12 [(5), 2-methoxy-17β-methyl-estra-1,3,5(10)-trien-3-yl sulfamate] |  |  |  |  |  | 1.3 | 
 |  |  |  | COc1cc2c(cc1OS(N)(=O)=O)CC[C@@H]1[C@@H]2CC[C@]2(C)CCC[C@@H]12 [(1), 2-Methoxy-estra-1,3,5(10)-trien-3-yl Sulfamate] | < 0.1 | 0.5 | 0.4 | 0.4 | 0.11 | 0.67 | 
 |  |  |  | COc1cc2c(cc1OS(N)(=O)=O)CC[C@@H]1[C@@H]2CC[C@]2(C)C(=C(F)F)CC[C@@H]12 [(8), 17(20)-Difluoromethylene-2-methoxy-estra-1,3,5(10)-trien-3-yl Sulfamate] | 0.2 | 0.5 | 0.22 | 0.3 | 0.17 | 1.1 | 
 |  |  |  | CC(=O)O[C@H]1C(=O)[C@@]2(C)[C@H]([C@H](OC(=O)c3ccccc3)[C@]3(O)C[C@H](OC(=O)[C@H](O)[C@@H](NC(=O)c4ccccc4)c4ccccc4)C(C)=C1C3(C)C)[C@]1(OC(C)=O)CO[C@@H]1C[C@@H]2O [Taxol, reference compound] | 0.004 | 0.004 | 0.004 | 0.004 | 0.4 |  | 
 |  |  |  | COc1cc2c(cc1OS(N)(=O)=O)CC[C@@H]1[C@@H]2CC[C@]2(C)[C@@H](C(F)F)CC[C@@H]12 [(9), 17β-Difluoromethyl-2-methoxy-estra-1,3,5(10)-trien-3-yl Sulfamate] | 0.2 | 0.4 | 0.22 | 0.3 | 0.11 | 1.5 | 
 |  |  |  | C=C1CC[C@H]2[C@@H]3CCc4cc(OS(N)(=O)=O)c(OC)cc4[C@H]3CC[C@]12C [(4), 2-Methoxy-17(20)-methylene-estra-1,3,5(10)-trien-3-yl Sulfamate] | 0.16 | 0.18 | 0.18 | 0.18 | < 0.1 | 1.4 | 
0.55 | 0.5 | 0.5 | 0.13 | C=C1CC[C@H]2[C@@H]3CC(=NO)c4cc(OS(N)(=O)=O)c(OC)cc4[C@H]3CC[C@]12C [(7), 2-Methoxy-17(20)-methylene-6-oximino-estra-1,3,5(10)-trien-3-yl Sulfamate] |  |  |  |  |  |  | 0.13
